Tests used:
[1] = system: African green monkey (Vero) cells; details: concentration level of 1600 μM; cited from earlier work
cells = details: in vitro neutron radiation of cells grown in the presence of compound; cited from earlier work
transcobalamin proteins = experiment: modified unsaturated Vitamin B12 binding capacity (UBBC) assay; parameters: species or system human; details: 0.4 ml patient serum treated with 4 μL analog (10 μg per ml normal saline), 20 minutes at room temperature; blocking of Co-57 cyanocobalamin binding; 5 patients, n=10
Method: In vitro biological activity of the carborane cyanocobalamin analogs. To assess the in vitro binding of the carborane cyanocobalamin (Example 1, CCC) and DTPA-aminopropylcobalamin (Example 3, DAPC) analogs to the transcobalamin proteins, the unsaturated Vitamin B12 binding capacity (UBBC) assay (see D. A. Collins and H. P. C. Hogenkamp, J. Nuclear Medicine, 1997, 38, 717-723) was performed. Serum was obtained from 5 patients being evaluated for pernicious anemia at the Mayo Clinic. The patients' serum first underwent a routine clinical UBBC as previously described. To determine if the CCC and DAPC analogs would inhibit Co-57 cyanocobalamin from binding to the transcobalamin proteins, the excess serum from the 5 patients underwent modified UBBC.
Specifically, under dim light, 0.4 ml serum was treated with 4 μL (concentration 10 μg CCC per ml normal saline) of the 2 CCC analogs, carborane-d-cyano-cobalamin and carborane-b-cyanocobalamin, and DAPC. The analogs were incubated for 20 minutes at room temperature with the patient's serum. Both the clinical run and the analog treated samples were assayed for UBBC as usual.
The percent PB of the analogs to transcobalamin protein was calculated as follows (PB=100−CCCUBBC cpm/clinical UBBC cpm×100). […]

average percent binding (PB) of the analogs to transcobalamin protein (transcobalamin proteins) [%] | Compound | cytotoxicity [1] | biological effect equivalent to a concentration of 10B (cells) [μg ^10B/g]
 | O=c1[nH]c(=O)n([C@H]2C[C@H](O)[C@@H](CO)O2)cc1B(O)O [5-dihydroloxyboryl-2′-deoxyuridine] | not cytotoxic | ~6
98.21 | DTPA-aminopropylcarbalamin [DAPC] |  | 
